In US20260365670A1, “EGFR INHIBITORS AND USES THEREOF” (DIZAL (JIANGSU) PHARMACEUTICAL CO., LTD., priority 2022, published 2026):
Like-named read-outs stand apart in the source and are kept apart here.

Key:
EGFR Exon19Del = molecular target: T1, EGFR Exon19Del (Homo sapiens, UniProt P00533, DEL746-750); assay: Inhibition of EGFR Exon19Del biochemical enzymatic activity (HTRF); details: EGFR Exon19Del, 1 mM ATP, 1 h at room temperature, read-out: IC50 @Del19
T1 construct: purchased Carna Bio
Procedure, shortened: (§1)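 Recombinant kinases phosphorylated 1 μM biotinylated TK substrate with 1 mM ATP in buffer with 5 mM MgCl2, 1 mM MnCl2, 0.01% CHAPS, 1 mM DTT, 0.5% DMSO. Reaction ran 1 h at room temperature, stopped with EDTA-containing detection mix. HTRF 665/615 nm ratio gave IC50 via four-parameter logistic fit.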

PC-9 = assay: Cell proliferation assay, PC-9 cells (CellTiter-Glo, 72 hours); type: cell-based; details: PC9 cells, read-out: GI50 PC9
Procedure, shortened: (§2)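 Ba/F3 cells (5000/well) and PC-9 cells (500/well, RPMI1640 with 10% FBS) were plated overnight and then dosed with a compound concentration series. Viable cells were read at day 0 (G0) and after treatment (G3). GI50 came from curve fits of G0-corrected proliferation relative to DMSO.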

EGFR wild type = molecular target: T2, EGFR wild type (Homo sapiens, UniProt P00533); assay: Inhibition of EGFR wild type biochemical enzymatic activity (HTRF); details: EGFR wild type, 1 mM ATP, 1 h at room temperature, read-out: IC50 @WT
T2 construct: purchased Carna Bio
Procedure, shortened: as §1

[1] = molecular target: T3, EGFR[T790M/C797S/d746-750] (Homo sapiens, UniProt P00533, C797S/DEL746-750/T790M); assay: Inhibition of EGFR[T790M/C797S/d746-750] biochemical enzymatic activity (HTRF); details: EGFR[T790M/C797S/d746-750], 1 mM ATP, 1 h at room temperature, read-out: IC50 @T790M - C797S - Del19
T3 construct: purchased Carna Bio
T3 sequence (P00533 with tags, fused parts or gaps DEL746-750/T790M/C797S limits assumed): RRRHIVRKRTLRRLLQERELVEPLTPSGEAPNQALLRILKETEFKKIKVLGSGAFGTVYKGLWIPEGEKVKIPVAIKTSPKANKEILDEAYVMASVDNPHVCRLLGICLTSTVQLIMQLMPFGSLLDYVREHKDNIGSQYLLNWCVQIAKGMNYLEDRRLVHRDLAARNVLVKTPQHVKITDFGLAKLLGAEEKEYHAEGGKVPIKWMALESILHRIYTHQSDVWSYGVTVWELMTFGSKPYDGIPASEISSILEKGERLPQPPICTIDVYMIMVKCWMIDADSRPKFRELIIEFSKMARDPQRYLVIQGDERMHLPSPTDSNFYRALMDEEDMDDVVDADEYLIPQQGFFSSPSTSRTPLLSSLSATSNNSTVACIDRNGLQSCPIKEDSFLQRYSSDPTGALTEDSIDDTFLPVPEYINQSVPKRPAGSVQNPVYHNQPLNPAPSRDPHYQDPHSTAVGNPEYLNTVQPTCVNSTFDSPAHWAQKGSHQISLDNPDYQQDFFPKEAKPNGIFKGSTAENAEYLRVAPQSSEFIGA
Procedure, shortened: as §1

EGFR L858R/T790M = molecular target: T4, EGFR L858R/T790M (Homo sapiens, UniProt P00533, L858R/T790M); assay: Inhibition of EGFR L858R/T790M biochemical enzymatic activity (HTRF); details: EGFR L858R/T790M, 1 mM ATP, 1 h at room temperature, read-out: IC50 @L858R-T790M
T4 construct: purchased Carna Bio
T4 sequence (P00533 25-1210 T790M/L858R): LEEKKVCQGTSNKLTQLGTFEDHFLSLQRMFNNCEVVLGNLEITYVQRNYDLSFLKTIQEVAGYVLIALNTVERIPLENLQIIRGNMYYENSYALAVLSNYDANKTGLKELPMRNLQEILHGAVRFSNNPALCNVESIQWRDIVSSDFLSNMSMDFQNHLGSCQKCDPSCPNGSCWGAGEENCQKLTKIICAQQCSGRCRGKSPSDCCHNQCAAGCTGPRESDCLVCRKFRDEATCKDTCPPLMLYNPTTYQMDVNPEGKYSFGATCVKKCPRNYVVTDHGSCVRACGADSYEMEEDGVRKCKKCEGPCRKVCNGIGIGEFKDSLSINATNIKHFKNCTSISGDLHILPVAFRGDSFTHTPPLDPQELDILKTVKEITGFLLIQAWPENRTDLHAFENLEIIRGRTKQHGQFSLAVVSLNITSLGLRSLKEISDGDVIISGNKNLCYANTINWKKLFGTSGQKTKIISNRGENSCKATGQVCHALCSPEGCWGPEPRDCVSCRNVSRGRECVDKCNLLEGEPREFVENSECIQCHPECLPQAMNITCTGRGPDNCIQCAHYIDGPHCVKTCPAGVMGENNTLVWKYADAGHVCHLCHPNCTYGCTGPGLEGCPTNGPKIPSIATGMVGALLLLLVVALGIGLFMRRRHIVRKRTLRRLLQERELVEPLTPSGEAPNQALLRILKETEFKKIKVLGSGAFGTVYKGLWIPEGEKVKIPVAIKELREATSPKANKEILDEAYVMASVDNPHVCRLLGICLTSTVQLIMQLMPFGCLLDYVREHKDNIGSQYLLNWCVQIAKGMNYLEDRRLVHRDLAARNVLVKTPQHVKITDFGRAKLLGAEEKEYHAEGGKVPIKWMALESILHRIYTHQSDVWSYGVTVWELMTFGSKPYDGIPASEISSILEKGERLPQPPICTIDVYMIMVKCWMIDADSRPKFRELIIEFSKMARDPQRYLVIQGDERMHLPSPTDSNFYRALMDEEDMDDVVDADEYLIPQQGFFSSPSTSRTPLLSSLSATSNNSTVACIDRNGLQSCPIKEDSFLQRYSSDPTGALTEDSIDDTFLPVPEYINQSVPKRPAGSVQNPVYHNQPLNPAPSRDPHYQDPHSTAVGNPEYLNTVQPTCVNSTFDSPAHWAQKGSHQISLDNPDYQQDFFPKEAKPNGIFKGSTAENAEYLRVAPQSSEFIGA
Procedure, shortened: as §1

[2] = test system: Ba/F3 cells expressing EGFR mutations; assay: Cell proliferation assay, Ba/F3 cells expressing EGFR mutations (CellTiter-Glo, 72 hours); type: cell-based
Procedure, shortened: as §2

EGFR L858R = molecular target: T5, EGFR L858R (Homo sapiens, UniProt P00533, L858R); assay: Inhibition of EGFR L858R biochemical enzymatic activity (HTRF); details: 1 mM ATP, 1 h at room temperature, read-out: IC50 @L858R
T5 construct: purchased Carna Bio
Procedure, shortened: as §1

EGFR (d746-750 C797S) = molecular target: T6, EGFR (d746-750 C797S) (Homo sapiens, UniProt P00533, C797S/DEL746-750); assay: Inhibition of EGFR (d746-750 C797S) biochemical enzymatic activity (HTRF); details: EGFR (d746-750 C797S), 1 mM ATP, 1 h at room temperature, read-out: IC50 @Del19-C797S
T6 construct: purchased signalchem
T6 sequence (P00533 with tags, fused parts or gaps DEL746-750/C797S limits assumed): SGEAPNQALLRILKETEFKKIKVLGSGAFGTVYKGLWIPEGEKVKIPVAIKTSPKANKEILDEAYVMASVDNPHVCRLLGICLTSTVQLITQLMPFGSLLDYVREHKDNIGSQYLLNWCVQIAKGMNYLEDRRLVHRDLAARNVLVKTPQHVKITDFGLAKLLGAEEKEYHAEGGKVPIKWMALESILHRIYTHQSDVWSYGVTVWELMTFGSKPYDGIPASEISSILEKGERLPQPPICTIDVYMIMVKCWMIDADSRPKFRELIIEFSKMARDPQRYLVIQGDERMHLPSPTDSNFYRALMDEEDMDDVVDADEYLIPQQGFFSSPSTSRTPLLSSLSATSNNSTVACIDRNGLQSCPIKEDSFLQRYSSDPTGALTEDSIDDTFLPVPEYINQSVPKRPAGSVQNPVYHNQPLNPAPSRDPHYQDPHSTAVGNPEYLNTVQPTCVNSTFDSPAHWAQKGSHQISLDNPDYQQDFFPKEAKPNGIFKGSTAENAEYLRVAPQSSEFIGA
Procedure, shortened: as §1

EGFR[T790M/C797S/L858R] = molecular target: T7, EGFR[T790M/C797S/L858R] (Homo sapiens, UniProt P00533, C797S/L858R/T790M); assay: Inhibition of EGFR[T790M/C797S/L858R] biochemical enzymatic activity (HTRF); details: EGFR[T790M/C797S/L858R], 1 mM ATP, 1 h at room temperature, read-out: IC50 @T790M- C797S - L858R
T7 construct: purchased Carna Bio
T7 sequence (P00533 25-1210 T790M/C797S/L858R): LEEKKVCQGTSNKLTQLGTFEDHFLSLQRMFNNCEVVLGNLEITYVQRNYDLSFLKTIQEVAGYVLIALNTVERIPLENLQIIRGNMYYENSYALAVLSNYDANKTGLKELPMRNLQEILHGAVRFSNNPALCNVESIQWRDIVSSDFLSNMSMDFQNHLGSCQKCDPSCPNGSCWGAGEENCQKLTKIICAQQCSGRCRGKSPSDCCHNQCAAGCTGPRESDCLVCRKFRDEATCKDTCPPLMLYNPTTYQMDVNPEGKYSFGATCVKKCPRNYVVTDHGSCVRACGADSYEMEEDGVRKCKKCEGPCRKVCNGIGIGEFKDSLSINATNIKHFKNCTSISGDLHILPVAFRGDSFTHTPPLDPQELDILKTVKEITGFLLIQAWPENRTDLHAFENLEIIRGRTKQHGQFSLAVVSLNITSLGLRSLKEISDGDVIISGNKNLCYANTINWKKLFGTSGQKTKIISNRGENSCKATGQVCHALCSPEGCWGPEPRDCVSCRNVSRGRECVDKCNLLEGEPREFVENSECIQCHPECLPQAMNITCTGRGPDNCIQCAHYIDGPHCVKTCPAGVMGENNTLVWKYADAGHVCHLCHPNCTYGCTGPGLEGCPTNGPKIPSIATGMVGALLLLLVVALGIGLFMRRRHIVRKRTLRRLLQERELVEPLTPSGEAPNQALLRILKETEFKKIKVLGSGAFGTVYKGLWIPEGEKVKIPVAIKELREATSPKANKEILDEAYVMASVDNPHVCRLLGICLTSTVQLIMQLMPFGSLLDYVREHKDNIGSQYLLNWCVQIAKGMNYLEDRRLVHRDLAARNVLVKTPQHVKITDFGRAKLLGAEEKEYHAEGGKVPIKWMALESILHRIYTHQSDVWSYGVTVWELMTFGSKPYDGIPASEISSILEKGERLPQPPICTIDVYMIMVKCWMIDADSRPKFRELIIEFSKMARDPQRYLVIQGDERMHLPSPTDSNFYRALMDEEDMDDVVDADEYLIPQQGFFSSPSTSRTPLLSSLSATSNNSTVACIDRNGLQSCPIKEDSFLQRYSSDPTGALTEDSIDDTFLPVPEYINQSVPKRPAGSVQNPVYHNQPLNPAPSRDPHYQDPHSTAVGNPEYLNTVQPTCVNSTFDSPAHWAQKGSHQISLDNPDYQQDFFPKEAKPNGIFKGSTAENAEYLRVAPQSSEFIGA
Procedure, shortened: as §1

EGFR Exon19Del/T790M = molecular target: T8, EGFR Exon19Del/T790M (Homo sapiens, UniProt P00533, DEL746-750/T790M); assay: Inhibition of EGFR Exon19Del/T790M biochemical enzymatic activity (HTRF); details: EGFR Exon19Del/T790M, 1 mM ATP, 1 h at room temperature, read-out: IC50 @Del19-T790M
T8 construct: purchased Carna Bio
Procedure, shortened: as §1

EGFR (C797S L858R) = molecular target: T9, EGFR (C797S L858R) (Homo sapiens, UniProt P00533, C797S/L858R); assay: Inhibition of EGFR (C797S L858R) biochemical enzymatic activity (HTRF); details: EGFR (C797S L858R), 1 mM ATP, 1 h at room temperature, read-out: IC50 @L858-C797S
T9 construct: purchased signalchem
T9 sequence (P00533 25-1210 C797S/L858R): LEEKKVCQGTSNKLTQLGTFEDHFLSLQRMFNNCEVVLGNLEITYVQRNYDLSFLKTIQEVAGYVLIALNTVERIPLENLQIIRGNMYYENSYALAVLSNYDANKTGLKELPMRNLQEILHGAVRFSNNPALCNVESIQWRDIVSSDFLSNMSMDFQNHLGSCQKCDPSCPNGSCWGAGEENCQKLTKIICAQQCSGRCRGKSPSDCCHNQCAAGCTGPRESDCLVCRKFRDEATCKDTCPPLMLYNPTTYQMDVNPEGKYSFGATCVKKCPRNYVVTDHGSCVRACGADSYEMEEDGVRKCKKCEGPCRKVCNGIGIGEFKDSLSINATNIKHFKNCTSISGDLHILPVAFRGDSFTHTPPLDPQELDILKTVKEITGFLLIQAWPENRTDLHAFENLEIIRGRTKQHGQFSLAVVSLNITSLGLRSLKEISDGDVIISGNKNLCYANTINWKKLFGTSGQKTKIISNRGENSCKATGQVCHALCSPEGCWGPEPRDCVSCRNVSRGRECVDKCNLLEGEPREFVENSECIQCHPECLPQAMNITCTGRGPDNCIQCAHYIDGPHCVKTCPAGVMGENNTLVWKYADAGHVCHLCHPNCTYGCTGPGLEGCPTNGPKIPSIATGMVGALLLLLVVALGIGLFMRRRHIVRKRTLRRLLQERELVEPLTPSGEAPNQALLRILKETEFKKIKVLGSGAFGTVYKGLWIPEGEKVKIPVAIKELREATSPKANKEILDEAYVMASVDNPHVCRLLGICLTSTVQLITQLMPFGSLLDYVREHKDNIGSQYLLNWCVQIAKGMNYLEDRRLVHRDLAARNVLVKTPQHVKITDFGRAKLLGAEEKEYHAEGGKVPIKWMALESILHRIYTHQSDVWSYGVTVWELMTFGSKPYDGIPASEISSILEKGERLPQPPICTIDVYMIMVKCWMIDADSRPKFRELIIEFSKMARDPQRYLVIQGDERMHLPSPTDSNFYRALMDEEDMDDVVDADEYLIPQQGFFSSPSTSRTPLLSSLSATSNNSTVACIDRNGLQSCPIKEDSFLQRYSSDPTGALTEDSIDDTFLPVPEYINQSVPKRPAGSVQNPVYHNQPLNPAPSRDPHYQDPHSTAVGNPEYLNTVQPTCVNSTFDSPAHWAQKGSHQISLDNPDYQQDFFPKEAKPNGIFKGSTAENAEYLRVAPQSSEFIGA
Procedure, shortened: as §1

[3] = BaF3 cells, EGFR DEL19 - C797S, read-out: GI50 DEL19 - C797S/BaF3
[4] = BaF3 cells, EGFR DEL19 - T790-C797S, read-out: GI50 DEL19 - T790-C797S/BaF3
[5] = BaF3 cells, EGFR L858R - C797S, read-out: GI50 L858R - C797S/BaF3
[6] = BaF3 cells, EGFR L858R - T790-C797S, read-out: GI50 L858R - T790-C797S/BaF3
[7] = BaF3 cells, EGFR L858R - T790M, read-out: GI50 L858R - T790M/BaF3
[8] = BaF3 cells, EGFR L858R, read-out: GI50 L858R/BaF3
[9] = EGFR DEL19 - T790M, read-out: GI50 DEL19 - T790M

| Compound | IC50 (EGFR Exon19Del) [nM] | GI50 (PC-9) [nM] | IC50 (EGFR wild type) [nM] | IC50 [1] [nM] | IC50 (EGFR L858R/T790M) [nM] | GI50 [2, 3] [nM] | GI50 [2, 4] [nM] | GI50 [2, 5] [nM] | GI50 [2, 6] [nM] | GI50 [2, 7] [nM] | GI50 [2, 8] [nM] | GI50 [2, 9] [nM] | IC50 (EGFR L858R) [nM] | IC50 (EGFR (d746-750 C797S)) [nM] | IC50 (EGFR[T790M/C797S/L858R]) [nM] | IC50 (EGFR Exon19Del/T790M) [nM] | IC50 (EGFR (C797S L858R)) [nM] |
| --- | --- | --- | --- | --- | --- | --- | --- | --- | --- | --- | --- | --- | --- | --- | --- | --- | --- |
| Cc1cc2cc(n1)-c1cnn(C)c1OCCN1CC3CCC(C3)(C1)n1c(nc3ccc(N4CC5CN(C)CC5C4)cc31)NC2=O (single isomer, unassigned) [Example B43A] | > 5000 | 1320 | > 5000 | 200 | > 5000 | 193 | 200 | 442 | 68 | 305 | 998 | 271 | > 5000 | > 5000 | > 5000 | 1160 | > 5000 |
| Cc1cc2cc(n1)-c1cnn(C)c1OCCN1CC3CCC(C3)(C1)n1c(nc3ccc(N4CCC(N5CCOCC5)C4)cc31)NC2=O (single isomer, unassigned) [Example B44A1] | > 5000 | 2300 | > 5000 | 4530 | > 5000 | 470 | 454 | 850 | 114 | 392 | 3200 | 1210 | > 5000 | > 5000 | > 5000 | > 5000 | > 5000 |
| Cc1cc2cc(n1)-c1cnn(C)c1OCCN1CC3CCC(C3)(C1)n1c(nc3ccc(N4CCC(N5CCOCC5)C4)cc31)NC2=O (single isomer, unassigned) [Example B44A2] | > 5000 | 3560 | > 5000 | > 5000 | > 5000 | 873 | 1290 | 3820 | 343 | 1080 | 9400 | 3760 | > 5000 | > 5000 | > 5000 | > 5000 | > 5000 |
| Cc1cc2cc(n1)-c1cnn(C)c1OCCN1CC3CCC(C3)(C1)n1c(nc3ccc(N(C)CCCN(C)C)cc31)NC2=O (single isomer, unassigned) [Example B45A] | > 5000 | 2800 | > 5000 | 1290 | > 5000 | 239 | 363 | 10000 | 48 | 10000 | 2850 | 10000 | > 5000 | > 5000 | > 5000 | 3620 | > 5000 |
| Cc1cc2cc(n1)-c1cnn(C)c1OCCN1CC3CCC(C3)(C1)n1c(nc3ccc(N(C)CCN(C)C)cc31)NC2=O (single isomer, unassigned) [Example B47A] | 4170 | 2260 | > 5000 | 1820 | > 5000 | 371 | 500 | 721 | 97 | 380 | 2990 | 417 | > 5000 | 3460 | > 5000 | 4260 | > 5000 |
| Cc1cc2cc(n1)-c1cnn(C)c1OCCN1CC3CCC(C3)(C1)n1c(nc3ccc(N4CCC(N5CCN(C)CC5)C4)cc31)NC2=O (single isomer, unassigned) [Example B49A] | > 5000 | 1480 | > 5000 | 289 | > 5000 | 325 | 606 | 750 | 57 | 353 | 931 | 550 | > 5000 | > 5000 | > 5000 | 481 | > 5000 |
| Cc1cc2cc(n1)-c1cnn(C)c1OCCN1CC3CCC(C3)(C1)n1c(nc3ccc(N4CCC(N5CCN(C)CC5)C4)cc31)NC2=O (single isomer, unassigned) [Example B49B] | 8 | 6 | 76 | 3.5 | 5.6 | 2 | 2 | 3 | 2 | 2 | 2 | 2 | 17 | 3.8 | 2.4 | 5.8 | 8 |
| Cc1cc2cc(n1)-c1cnn(C)c1OCCN1CC3CCC(C3)(C1)n1c(nc3ccc(N4CCC5(CN(C)C5)C4)cc31)NC2=O (single isomer, unassigned) [Example B50A] | > 5000 | 1550 | > 5000 | 748 | > 5000 | 302 | 437 | 741 | 52 | 320 | 1280 | 377 | > 5000 | > 5000 | > 5000 | 2290 | > 5000 |
| Cc1cc2cc(n1)-c1cnn(C)c1OCCN1CC3CCC(C3)(C1)n1c(nc3ccc(N4CCC5(CCN(C)CC5)C4)cc31)NC2=O (single isomer, unassigned) [Example B51A] | > 5000 | 3020 | > 5000 | 1100 | > 5000 | 357 | 615 | 1080 | 124 | 383 | 2850 | 530 | > 5000 | > 5000 | > 5000 | 3370 | > 5000 |
| Cc1cc2cc(n1)-c1cnn(C)c1OCCN1CC3CCC(C3)(C1)n1c(nc3ccc(N4CC5CC4CN5C)cc31)NC2=O (single isomer, unassigned) [Example B53A] | > 5000 | 3040 | > 5000 | 1080 | > 5000 | 348 | 419 | 1070 | 91 | 383 | 2570 | 388 | > 5000 | 4350 | > 5000 | 3320 | > 5000 |
| CCN1CCN(c2ccc3nc4n(c3c2)C23CCC(CN(CCOc5c(cnn5C)-c5cc(cc(C)n5)C(=O)N4)C2)C3)CC1 (single isomer, unassigned) [Example B56A] | 3180 | 443 | > 5000 | 360 | > 5000 | 82 | 145 | 417 | 58 | 80 | 1030 | 230 | > 5000 | 2390 | > 5000 | 1320 | > 5000 |
